# System: yeast genes (expressed mRNA)
# Experiment: DNA chip measurement of expressed mRNA of yeast genes after culture with a toxic chemical substance
# Type: cell-based, Saccharomyces cerevisiae S288C
# Conditions: for level of expressed mRNA in the presence of chemical substance / level in the absence of chemical substance: cultured two hours with the chemical substance; for The level of expressed mRNA in the presence of chemical substance/The level of expressed mRNA in the absence of chemical substance: cultured two hours with substance
# Outline: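 Each expression value is the mRNA level in chemical-treated yeast divided by that in untreated yeast, from Cy3/Cy5 fluorescence on a whole-genome chip. Log-phase S288C cells in YPD at 25° C had received a sublethal, growth-inhibiting dose for two hours. Intensity denotes control expression relative to the all-gene mean.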
substance,measurement,setting,value
Na2As [(1)],level of expressed mRNA in the presence of chemical substance / level in the absence of chemical substance,yeast gene YDR133C,0.9
same,level of expressed mRNA in the presence of chemical substance / level in the absence of chemical substance,yeast gene YDR250C,1.9
same,level of expressed mRNA in the presence of chemical substance / level in the absence of chemical substance,yeast gene YDR278C,1.0
same,level of expressed mRNA in the presence of chemical substance / level in the absence of chemical substance,yeast gene YDR281C,2.1
same,The level of expressed mRNA in the presence of chemical substance/The level of expressed mRNA in the absence of chemical substance,yeast gene YDR330W,0.8
same,level of expressed mRNA in the presence of chemical substance / level in the absence of chemical substance,yeast gene YDR366C,0.9
same,The level of expressed mRNA in the presence of chemical substance/The level of expressed mRNA in the absence of chemical substance,yeast gene YDR411C,0.9
same,The level of expressed mRNA in the presence of chemical substance/The level of expressed mRNA in the absence of chemical substance,yeast gene YDR511W,1.3
same,The level of expressed mRNA in the presence of chemical substance/The level of expressed mRNA in the absence of chemical substance,yeast gene YDR545W,0.6
same,The level of expressed mRNA in the presence of chemical substance/The level of expressed mRNA in the absence of chemical substance,yeast gene YEL001C,1.0
same,The level of expressed mRNA in the presence of chemical substance/The level of expressed mRNA in the absence of chemical substance,yeast gene YER004W,1.0
same,The level of expressed mRNA in the presence of chemical substance/The level of expressed mRNA in the absence of chemical substance,yeast gene YER035W,1.4
same,The level of expressed mRNA in the presence of chemical substance/The level of expressed mRNA in the absence of chemical substance,yeast gene YER079W,1.1
same,The level of expressed mRNA in the presence of chemical substance/The level of expressed mRNA in the absence of chemical substance,yeast gene YER106W,1.3
same,The level of expressed mRNA in the presence of chemical substance/The level of expressed mRNA in the absence of chemical substance,yeast gene YER158C,1.2
same,The level of expressed mRNA in the presence of chemical substance/The level of expressed mRNA in the absence of chemical substance,yeast gene YER163C,1.1
same,The level of expressed mRNA in the presence of chemical substance/The level of expressed mRNA in the absence of chemical substance,yeast gene YER175C,0.9
same,The level of expressed mRNA in the presence of chemical substance/The level of expressed mRNA in the absence of chemical substance,yeast gene YFL006W,0.8
same,The level of expressed mRNA in the presence of chemical substance/The level of expressed mRNA in the absence of chemical substance,yeast gene YFL010C,1.0
same,The level of expressed mRNA in the presence of chemical substance/The level of expressed mRNA in the absence of chemical substance,yeast gene YFL024C,1.0
same,The level of expressed mRNA in the presence of chemical substance/The level of expressed mRNA in the absence of chemical substance,yeast gene YFL032W,0.4
same,level of expressed mRNA in the presence of chemical substance / level in the absence of chemical substance,yeast gene YFR026C,0.9
same,The level of expressed mRNA in the presence of chemical substance/The level of expressed mRNA in the absence of chemical substance,yeast gene YGL037C,1.5
same,The level of expressed mRNA in the presence of chemical substance/The level of expressed mRNA in the absence of chemical substance,yeast gene YGL047W,1.0
same,The level of expressed mRNA in the presence of chemical substance/The level of expressed mRNA in the absence of chemical substance,yeast gene YGL053W,1.5
same,level of expressed mRNA in the presence of chemical substance / level in the absence of chemical substance,yeast gene YGL088W,0.9
same,The level of expressed mRNA in the presence of chemical substance/The level of expressed mRNA in the absence of chemical substance,yeast gene YGL121C,2.6
same,The level of expressed mRNA in the presence of chemical substance/The level of expressed mRNA in the absence of chemical substance,yeast gene YGL199C,1.1
same,level of expressed mRNA in the presence of chemical substance / level in the absence of chemical substance,yeast gene YGR038W,0.9
same,The level of expressed mRNA in the presence of chemical substance/The level of expressed mRNA in the absence of chemical substance,yeast gene YGR101W,1.0
same,The level of expressed mRNA in the presence of chemical substance/The level of expressed mRNA in the absence of chemical substance,yeast gene YGR110W,1.6
same,The level of expressed mRNA in the presence of chemical substance/The level of expressed mRNA in the absence of chemical substance,yeast gene YGR130C,0.9
same,level of expressed mRNA in the presence of chemical substance / level in the absence of chemical substance,yeast gene YGR139W,1.3
same,The level of expressed mRNA in the presence of chemical substance/The level of expressed mRNA in the absence of chemical substance,yeast gene YGR154C,1.8
same,The level of expressed mRNA in the presence of chemical substance/The level of expressed mRNA in the absence of chemical substance,yeast gene YGR221C,0.9
same,level of expressed mRNA in the presence of chemical substance / level in the absence of chemical substance,yeast gene YGR243W,1.4
same,level of expressed mRNA in the presence of chemical substance / level in the absence of chemical substance,yeast gene YGR293C,0.5
same,level of expressed mRNA in the presence of chemical substance / level in the absence of chemical substance,yeast gene YHL006C,0.7
same,level of expressed mRNA in the presence of chemical substance / level in the absence of chemical substance,yeast gene YHR095W,1.1
same,level of expressed mRNA in the presence of chemical substance / level in the absence of chemical substance,yeast gene YHR105W,0.9
same,The level of expressed mRNA in the presence of chemical substance/The level of expressed mRNA in the absence of chemical substance,yeast gene YHR138C,2.8
same,level of expressed mRNA in the presence of chemical substance / level in the absence of chemical substance,yeast gene YHR181W,0.9
same,The level of expressed mRNA in the presence of chemical substance/The level of expressed mRNA in the absence of chemical substance,yeast gene YHR199C,1.9
same,The level of expressed mRNA in the presence of chemical substance/The level of expressed mRNA in the absence of chemical substance,yeast gene YIL023C,1.1
same,The level of expressed mRNA in the presence of chemical substance/The level of expressed mRNA in the absence of chemical substance,yeast gene YIL041W,1.0
same,The level of expressed mRNA in the presence of chemical substance/The level of expressed mRNA in the absence of chemical substance,yeast gene YIL087C,1.3
same,level of expressed mRNA in the presence of chemical substance / level in the absence of chemical substance,yeast gene YIL127C,1.1
same,level of expressed mRNA in the presence of chemical substance / level in the absence of chemical substance,yeast gene YJL017W,1.1
same,level of expressed mRNA in the presence of chemical substance / level in the absence of chemical substance,yeast gene YJL037W,1.8
same,The level of expressed mRNA in the presence of chemical substance/The level of expressed mRNA in the absence of chemical substance,yeast gene YJL057C,1.5
same,The level of expressed mRNA in the presence of chemical substance/The level of expressed mRNA in the absence of chemical substance,yeast gene YJL066C,0.9
same,The level of expressed mRNA in the presence of chemical substance/The level of expressed mRNA in the absence of chemical substance,yeast gene YJL082W,1.4
same,level of expressed mRNA in the presence of chemical substance / level in the absence of chemical substance,yeast gene YJL097W,1.0
